# Values joined by “and” are separate entries in the source; they are usually repeats but may differ in a detail not shown here. Equal entries are not always repeated. Where two headings read alike, the source gives them in different places.
# Legend:
# [1] = Pharmacokinetics after single oral administration of the SaTSS standardized fraction (plasma, HPLC, PKSolver); format: in vivo, ICR mice
# Protocol: Analyses of HPLC were carried out in a Waters system (2695 Separation module) coupled to a diode array detector (2996) with a 190–600-nm detection range and operated by the Manager Millennium software system (Empower 1; Waters Corporation, Mexico City, Mexico). Separations were performed in a Spherisorb-ODS RP-18 column (250 × 4.6 mm, 5 µm; Waters Corporation, Mexico) employing a constant temperature of 25 °C during the analyses. Samples (20 µL) were eluted at a 1.0 mL/min flow rate with a gradient of mobile phases of (A) high-purity H2O with trifluoroacetic acid to 0.5% v/v (TFA, Sigma-Aldrich, Mexico City, Mexico) and (B) high purity CH3CN, and compounds were detected by monitoring absorbance for tomentin and scopoletin at λ = 343 nm and for sphaeralcic acid at λ = 357 nm. The mobile phase was started with water (100%) and was maintained for 1 min, then solvent B was gradually incorporated at 5% (at 2 min), at 30% (at 4 min), and at 50% (at 16 min). During the next 4 min, solvent B was increased to 100%, and this proportion was maintained for 5 min. Finally, the following 3 min were utilized to return the mobile phase to the initial condition. […] Identification of scopoletin and tomentin as well as sphaeralcic acid was performed by comparing their retention times (tomentin—11.288 min, scopoletin—11.349 min, coumarin mixure—11.457 min, and sphaeralcic acid—23.319 min) and absorbance spectra.
# The mice were previously anesthetized with sodium pentobarbital (PiSA Agropecuaria), then retro-orbital sinus blood was obtained using heparinized capillaries and distributed to heparinized tubes, and tubes were centrifuged at 3500 g for 7 min. The plasma obtained was transferred to new tubes and stored at −4 °C until use.
# Plasma samples were extracted with CH3CN and TFA (w/v) 20% (1:1), then vials were centrifuged at 14,000 g for 10 min and the supernatant was transferred to another vial and left to dry at room temperature. The precipitate was resuspended with 1 mL of high-purity methanol (Merk, México) and filtered through Teflon membrane (13 mm, 0.45 µm, Life Science). Each filtered sample was injected into the HPLC equipment, and the concentrations of tomentin and scopoletin at λ = 343 nm and of sphaeralcic acid at λ = 357 nm were obtained by comparison with pre-built calibration curves.
# To evaluate the suitability of the assay for the pharmacokinetic studies, 400 mg/kg of the active SaTSS fraction standardized in a mixture of tomentin and scopoletin (7.1 mg/400 mg), and sphaeralcic acid (34.6 mg/400 mg) was administered orally or intravenously to the mice. The dose of SaTSS fraction was chosen based on previous research of active compounds, as the median efective dose of each compound and detectable concentrations of them in the fraction. For oral pharmacokinetics, ten animals were used in each group at different times (0, 1.3, 3.3, 5, 10, 20, 40, 60, 80, 120, and 240 min). For intravenous pharmacokinetics, three animals were used in each group at different times (2, 4, 6, 8, 10, 15, 20, 30, and 60 min) Subsequently, the mice were anesthetized, retro-orbital sinus blood was obtained, plasma samples were extracted with CH3CN and TFA (w/v) 20% (1:1), and the extracts were analyzed by HPLC for coumarin (tomentin and scopoletin) and sphaeralcic acid quantification. Pharmacokinetic calculations were performed using the observed data. All data were subsequently processed using the PKSolver add-in program for Microsoft Excel written in Visual Basic for Applications. All values obtained were expressed in mean ± Standard Deviation (SD). For the pharmacokinetic assay, the selection was made either from a one-compartment or from a two-compartment model, with the use of both the Akaike Information Criterion (AIC) and the Schwarz Criterion (SC). […]
# [2] = set-up: method as in PMID 23384552; dose or concentration left out as unconfirmed; details: feces and urine; ref [20]; cited from earlier work
# [3] = oral 400 mg/kg SaTSS fraction, two-compartment model
# [4] = oral 400 mg/kg SaTSS fraction, two-compartment model, 400 mg/kg
# [5] = oral 400 mg/kg SaTSS fraction, two-compartment model, listed as Sphaeralcic Acid, 400 mg/kg
# [6] = oral 400 mg/kg SaTSS fraction, two-compartment model, listed as sphaeralcic acid, 400 mg/kg
smiles,measurement,setting,value
"COc1c(C)cc2c(C(C)C)cc(C(=O)O)c(O)c2c1O [Sphaeralcic acid, sphaeralcic acid]",AUC(0-inf),"[1]; ICR, mouse, plasma, po, 400 mg/kg, oral 400 mg/kg SaTSS fraction, two-compartment model",3470 ng·h/mL
same,AUC(0-t),"[1]; ICR, mouse, plasma, po, 400 mg/kg, oral 400 mg/kg SaTSS fraction, two-compartment model, read-out: AUC 0→240 (converted)",2900 ng·h/mL
same,CL/F,"[1]; ICR, mouse, plasma, po, 400 mg/kg, oral 400 mg/kg SaTSS fraction, two-compartment model, read-out: CL/F (apparent clearance related to bioavailability)",170 mL/min/kg
same,Cmax,"[1]; ICR, mouse, plasma, po, 400 mg/kg, oral 400 mg/kg SaTSS fraction, two-compartment model, read-out: Cmax",10400 ng/mL
same,MRT,"[1]; ICR, mouse, plasma, po, 400 mg/kg, oral 400 mg/kg SaTSS fraction, two-compartment model, read-out: MRT (mean residence time) (converted)",40.2 min
same,Tmax,"[1]; ICR, mouse, plasma, po, 400 mg/kg, oral 400 mg/kg SaTSS fraction, two-compartment model, read-out: Tmax (converted)",4 min
same,Vd/F,"[1]; ICR, mouse, plasma, po, 400 mg/kg, oral 400 mg/kg SaTSS fraction, two-compartment model, read-out: V/F (apparent volume of distribution related to bioavailability)",1.31 L/kg
same,k el,"[1]; ICR, mouse, plasma, po, 400 mg/kg, oral 400 mg/kg SaTSS fraction, two-compartment model, read-out: k10 (apparent first-order elimination rate constant from the central compartment) (converted)",0.00217 s⁻¹
same,half-life,"[1]; ICR, mouse, plasma, po, 400 mg/kg, oral 400 mg/kg SaTSS fraction, two-compartment model, read-out: t1/2β",44.6 min
same,concentration at 1.3 min,"[1]; ICR, mouse, plasma, oral single dose 400 mg/kg SaTSS fraction, 1.3 min, n = 10",5040 ± 50 ng/mL
same,concentration at 3.3 min,"[1]; ICR, mouse, plasma, oral single dose 400 mg/kg SaTSS fraction, 3.3 min, n = 10",9920 ± 410 ng/mL
same,concentration at 5 min,"[1]; ICR, mouse, plasma, oral single dose 400 mg/kg SaTSS fraction, 5 min, n = 10",12800 ± 540 ng/mL
same,concentration at 10 min,"[1]; ICR, mouse, plasma, oral single dose 400 mg/kg SaTSS fraction, 10 min, n = 10",4030 ± 110 ng/mL
same,concentration at 20 min,"[1]; ICR, mouse, plasma, oral single dose 400 mg/kg SaTSS fraction, 20 min, n = 10",2770 ± 80 ng/mL
same,concentration at 40 min,"[1]; ICR, mouse, plasma, oral single dose 400 mg/kg SaTSS fraction, 40 min, n = 10",1380 ± 120 ng/mL
same,concentration at 80 min,"[1]; ICR, mouse, plasma, oral single dose 400 mg/kg SaTSS fraction, 80 min, n = 10",170 ± 30 ng/mL
same,concentration at 120 min,"[1]; ICR, mouse, plasma, oral single dose 400 mg/kg SaTSS fraction, 120 min, n = 10",0 ng/mL
same,concentration at 240 min,"[1]; ICR, mouse, plasma, oral single dose 400 mg/kg SaTSS fraction, 240 min, n = 10",0 ng/mL
same,products derived from biotransformation in plasma,[1]; after oral administration of SaTSS fraction,not detected
same,time at which the plasma concentration fell below LOQ,[1]; oral 400 mg/kg SaTSS fraction,80 min
same,time of maximum (highest) observed plasma concentration,"[1]; oral 400 mg/kg SaTSS fraction, observed sampling time",five
same,"B (plasma concentration, peripheral compartment)",[1]; [3],1.845 µg/mL
same,k12 (transfer rate constant central to peripheral compartment),[1]; [3],0.114 min⁻¹
same,k21 (transfer rate constant peripheral to central compartment),[1]; [3],0.031 min⁻¹
same,α,[1]; [3],0.256 min⁻¹
same,β,[1]; [3],0.015 min⁻¹
same,Cmax,[1]; [4],10450 ng/mL
same,MRT (mean residence time),[1]; [4],40.17 min
same,"A (plasma concentration, central compartment)",[1]; [5],413.646 µg/mL
same,AUC 0→240,[1]; [5],173.724 µg·min/mL
same,AUC 0→∞,[1]; [5],208.058 µg·min/mL
same,CL/F (apparent clearance related to bioavailability),[1]; [5],0.166 (mg)/(µg/mL)/min
same,Cmax,[1]; [5],10447 ng/mL
same,MRT (mean residence time),[1]; [5],40.167 min
same,Tmax,[1]; [5],4.004 min
same,V/F (apparent volume of distribution related to bioavailability),[1]; [5],1.309 (mg)/(µg/mL)
same,k10 (apparent first-order elimination rate constant from the central compartment),[1]; [5],0.127 min⁻¹
same,ka (apparent first-order absorption rate constant),[1]; [5],0.273 min⁻¹
same,t1/2ka (absorption half time),[1]; [5],2.537 min
same,t1/2α,[1]; [5],2.698 min
same,t1/2β,[1]; [5],44.653 min
same,"A (plasma concentration, central compartment)",[1]; [6],413 µg/mL
same,ka (apparent first-order absorption rate constant),[1]; [6],0.27 min⁻¹ and 0.273 min⁻¹
same,t1/2ka (absorption half time),[1]; [6],2.53 min
same,t1/2α,[1]; [6],2.70 min
same,route of elimination,[2],enterohepatic route
